Results on 25 compounds are retold here after PubChem BioAssay AID330 (DTP/NCI, 2004).

The test has as its system P388 leukemia ip, CD2F1 mice, survival T/C. Put plainly: NCI In Vivo Anticancer Drug Screen. Data for tumor model P388 Leukemia (intraperitoneal) in CD2F1 (CDF1) mice. The conditions noted are these: endpoint: median survival time, higher = longer survival. The method in brief: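 Mice carrying the transplanted tumor received test compound or vehicle. Survival was recorded in each group, and the value is the treated-group measurement divided by that of the vehicle-treated control group.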

[1] abbreviates: dose: 50.0 mg/kg/injection, schedule: Q01DX009 (ip), vehicle: Klucel (hydroxypropylcellulose) (HPC).
The mark [2] stands for this setting: dose: 100.0 mg/kg/injection, schedule: Q01DX009 (ip), vehicle: Klucel (hydroxypropylcellulose) (HPC).
Where [3] appears, read: dose: 200.0 mg/kg/injection, schedule: Q01DX009 (ip), vehicle: Klucel (hydroxypropylcellulose) (HPC).
[4] abbreviates: dose: 50.0 mg/kg/injection, schedule: Q01DX009 (ip), vehicle: saline with Tween-80.
Setting [5] is: dose: 100.0 mg/kg/injection, schedule: Q01DX009 (ip), vehicle: saline with Tween-80.
Setting [6] is: dose: 200.0 mg/kg/injection, schedule: Q01DX009 (ip), vehicle: saline with Tween-80.
[7] abbreviates: dose: 60.0 mg/kg/injection, schedule: Q01DX005 (ip), vehicle: saline with Tween-80.
Setting [8] is: dose: 120.0 mg/kg/injection, schedule: Q01DX005 (ip), vehicle: saline with Tween-80.
The mark [9] stands for this setting: dose: 240.0 mg/kg/injection, schedule: Q01DX005 (ip), vehicle: saline with Tween-80.
[10] abbreviates: dose: 12.5 mg/kg/injection, schedule: Q01DX009 (ip), vehicle: saline with Tween-80.
[11] abbreviates: dose: 50.0 mg/kg/injection, schedule: Q01DX009 (ip), vehicle: saline.
The mark [12] stands for this setting: dose: 100.0 mg/kg/injection, schedule: Q01DX009 (ip), vehicle: saline.
Setting [13] is: dose: 25.0 mg/kg/injection, schedule: Q01DX009 (ip), vehicle: saline with Tween-80.
[14] abbreviates: dose: 12.5 mg/kg/injection, schedule: Q01DX009 (ip), vehicle: Klucel (hydroxypropylcellulose) (HPC).
The mark [15] stands for this setting: dose: 25.0 mg/kg/injection, schedule: Q01DX009 (ip), vehicle: Klucel (hydroxypropylcellulose) (HPC).

“And” between values parts separate entries of the source, which are not always exact repeats. Equal entries are not always repeated. Inconclusive results and toxic doses are left out.

As for `COC(=O)C/C(C)=N/SC(c1ccccc1)(c1ccccc1)c1ccccc1`, the T/C runs as follows: (dose: 100.0 mg/kg/injection, schedule: Q04DX002 (ip), vehicle: saline with Tween-80) 95 % of control; (dose: 200.0 mg/kg/injection, schedule: Q04DX002 (ip), vehicle: saline with Tween-80) 101 % of control; (dose: 400.0 mg/kg/injection, schedule: Q04DX002 (ip), vehicle: saline with Tween-80) 94 % of control.

`NNC(=O)CNc1ccccc1F`: the T/C is, setting by setting: (dose: 15.0 mg/kg/injection, schedule: Q01DX005 (ip), vehicle: saline) 97 % of control; (dose: 30.0 mg/kg/injection, schedule: Q01DX005 (ip), vehicle: saline) 95 % of control; (dose: 60.0 mg/kg/injection, schedule: Q01DX005 (ip), vehicle: saline) 91 % of control and 97 % of control; (dose: 120.0 mg/kg/injection, schedule: Q01DX005 (ip), vehicle: saline) 97 % of control.

For the compound `CC(=O)NC(CCSSCCC(NC(C)=O)C(=O)ON1C(=O)CCC1=O)C(=O)ON1C(=O)CCC1=O` (configuration not stated), the T/C is 104 % of control (dose: 50.0 mg/kg/injection, schedule: Q01DX005 (ip), vehicle: saline with Tween-80); 105 % of control (dose: 100.0 mg/kg/injection, schedule: Q01DX005 (ip), vehicle: saline with Tween-80); 104 % of control (dose: 200.0 mg/kg/injection, schedule: Q01DX005 (ip), vehicle: saline with Tween-80).

As to `C[C@@H](O)[C@@H]1NC(=O)[C@H]([C@@H](C)O)NC1=O`, the T/C (dose: 50.0 mg/kg/injection, schedule: Q01DX005 (ip), vehicle: saline) is 99 % of control; the T/C (dose: 100.0 mg/kg/injection, schedule: Q01DX005 (ip), vehicle: saline) was 99 % of control; the T/C (dose: 200.0 mg/kg/injection, schedule: Q01DX005 (ip), vehicle: saline) was 99 % of control.

`CSC(=Nc1ccc(C)c(Cl)c1)NC#N`: the T/C is 98 % of control under setting [1], 91 % of control under setting [2] and 92 % of control under setting [3].

In the case of `COc1ccc(Oc2c(OC)cc(NCCCCCN3C(=O)c4ccccc4C3=O)c3ncccc23)cc1`, the T/C is 88 % of control under setting [4], 97 % of control under setting [5] and 89 % of control under setting [6].

For `CCOc1ccc(NS(=O)(=O)c2ccc(F)cc2)cc1`, the T/C under setting [7] was 99 % of control, the T/C under setting [8] was 88 % of control and the T/C under setting [9] was 95 % of control.

With `CCN(CC)C(=S)N/N=C(\C)c1ccccn1`, the T/C is, setting by setting: (dose: 6.25 mg/kg/injection, schedule: Q01DX009 (ip), vehicle: saline with Tween-80) 106 % of control; under setting [10], 89 % of control.

Take `CCCCCCCCCCS(=O)CC(CO)NC(=O)/C=C/c1c(C)[nH]c(=O)[nH]c1=O` (configuration not stated): the T/C by setting is: (dose: 0.78 mg/kg/injection, schedule: Q01DX009 (ip), vehicle: other) 107 % of control and 116 % of control; (dose: 1.56 mg/kg/injection, schedule: Q01DX009 (ip), vehicle: other) 115 % of control; (dose: 6.25 mg/kg/injection, schedule: Q01DX009 (ip), vehicle: other) 153 % of control.

For the compound `OC(CCl)CN1CCN(CC(O)CCl)CC1` (configuration not stated), the T/C (dose: 25.0 mg/kg/injection, schedule: Q01DX005 (ip), vehicle: water) was 150 % of control; the T/C (dose: 100.0 mg/kg/injection, schedule: Q01DX005 (ip), vehicle: water) is 90 % of control and 92 % of control.

On to `O=C1NCCCC1(c1ccccc1)c1ccccc1`, for which the T/C under setting [11] was 98 % of control; the T/C under setting [12] was 102 % of control; the T/C (dose: 200.0 mg/kg/injection, schedule: Q01DX009 (ip), vehicle: saline) is 97 % of control.

In the case of `NS(=O)(=O)c1cccc(NC(=O)c2ccco2)c1`, the T/C was 102 % of control under setting [1], 101 % of control under setting [2] and 94 % of control under setting [3].

Take `Brc1cc2c(cc1C=NC1CCCCC1)OCO2`: the T/C (dose: 100.0 mg/kg/injection, schedule: Q01DX001 (ip), vehicle: Klucel (hydroxypropylcellulose) (HPC)) is 99 % of control; the T/C (dose: 200.0 mg/kg/injection, schedule: Q01DX001 (ip), vehicle: Klucel (hydroxypropylcellulose) (HPC)) is 101 % of control; the T/C (dose: 400.0 mg/kg/injection, schedule: Q01DX001 (ip), vehicle: Klucel (hydroxypropylcellulose) (HPC)) is 101 % of control.

For the compound `O=C(/C=C/c1ccccc1)NOC(=O)/C=C/c1ccccc1`, the T/C was 107 % of control under setting [13]; 107 % of control and 123 % of control under setting [4]; 111 % of control and 114 % of control under setting [5]; 115 % of control under setting [6].

Consider `COC(OC)c1cc(=O)[nH]c(=S)[nH]1`, for which the T/C by setting is: (dose: 50.0 mg/kg/injection, schedule: Q04DX003 (ip), vehicle: saline) 95 % of control; (dose: 100.0 mg/kg/injection, schedule: Q04DX003 (ip), vehicle: saline) 96 % of control; (dose: 200.0 mg/kg/injection, schedule: Q04DX003 (ip), vehicle: saline) 93 % of control; (dose: 400.0 mg/kg/injection, schedule: Q04DX003 (ip), vehicle: saline) 104 % of control.

Consider `C=C1C(=O)O[C@H]2C[C@@H]1C(=O)C/C(C)=C/CC/C(C)=C/CC[C@@]2(C)OCSC`, for which the T/C is 116 % of control (dose: 8.0 mg/kg/injection, schedule: Q01DX009 (ip), vehicle: Klucel (hydroxypropylcellulose) (HPC)); 103 % of control (dose: 16.0 mg/kg/injection, schedule: Q01DX009 (ip), vehicle: Klucel (hydroxypropylcellulose) (HPC)); 111 % of control (dose: 32.0 mg/kg/injection, schedule: Q01DX009 (ip), vehicle: Klucel (hydroxypropylcellulose) (HPC)); 92 % of control (dose: 64.0 mg/kg/injection, schedule: Q01DX009 (ip), vehicle: Klucel (hydroxypropylcellulose) (HPC)).

With `CC(C)c1nc(-c2ccccc2)c(-c2ccccc2)[nH]1`, the T/C is 90 % of control under setting [5]; 90 % of control under setting [6]; 95 % of control (dose: 400.0 mg/kg/injection, schedule: Q01DX009 (ip), vehicle: saline with Tween-80).

For `COc1cc[c]([Sb]2([c]3ccc(OC)cc3)([c]3ccc(OC)cc3)[NH]c3cc(C(c4ccccc4)(c4ccccc4)c4ccccc4)cc(C(C)(C)C)c3[O]2)cc1`, the T/C runs as follows: under setting [4], 100 % of control; under setting [5], 99 % of control; under setting [6], 100 % of control.

With `O=C(N/N=C/c1ccco1)c1cccnc1`, the T/C was 92 % of control under setting [7], 92 % of control under setting [8] and 101 % of control under setting [9].

With `Brc1cc(Br)c2ccccc2c1OCC1CO1` (configuration not stated), the T/C under setting [14] was 106 % of control and 95 % of control; the T/C under setting [15] was 106 % of control; the T/C under setting [1] was 88 % of control and 89 % of control and 95 % of control; the T/C under setting [3] was 91 % of control.

`CC(=O)Nc1ccc(N=NNc2ccccc2)cc1`: the T/C is, setting by setting: (dose: 3.12 mg/kg/injection, schedule: Q01DX001 (ip), vehicle: Klucel (hydroxypropylcellulose) (HPC)) 100 % of control; (dose: 6.25 mg/kg/injection, schedule: Q01DX001 (ip), vehicle: Klucel (hydroxypropylcellulose) (HPC)) 93 % of control; (dose: 12.5 mg/kg/injection, schedule: Q01DX001 (ip), vehicle: Klucel (hydroxypropylcellulose) (HPC)) 99 % of control and 97 % of control.

Turning to `Clc1ccc(C(CCOc2ccccc2Br)Cn2ccnc2)c(Cl)c1` (configuration not stated), the T/C is 89 % of control under setting [10]; 90 % of control under setting [13]; 101 % of control and 94 % of control under setting [4].

`COc1ccc(OC)c2c1CCC1(C2)NC(=O)NC1=O` (configuration not stated): the T/C (dose: 50.0 mg/kg/injection, schedule: Q01DX005 (ip), vehicle: Klucel (hydroxypropylcellulose) (HPC)) was 111 % of control; the T/C (dose: 100.0 mg/kg/injection, schedule: Q01DX005 (ip), vehicle: Klucel (hydroxypropylcellulose) (HPC)) was 100 % of control; the T/C (dose: 200.0 mg/kg/injection, schedule: Q01DX005 (ip), vehicle: Klucel (hydroxypropylcellulose) (HPC)) is 95 % of control.

Take `c1ccc(Sc2ncccn2)nc1`: the T/C under setting [11] is 108 % of control and the T/C under setting [12] is 115 % of control.

Consider `CC(=O)C1CC[C@@]2(C)C(CC[C@H]3[C@@H]4CCC[C@H]([C@H](C)O)[C@@]4(C)CC[C@@H]32)C1` (some centres not stated), for which the T/C by setting is: under setting [14], 91 % of control; under setting [15], 91 % of control; under setting [1], 88 % of control.
